Some results are limits rather than exact numbers.

A word on the melting point: it is the temperature of the solid-liquid transition. On to `O=C(NC12CC3CC(CC1C3)C2)c1ccncc1C(c1ccc(O)cc1)c1ccc(O)cc1`, for which the melting point was 218 to 220 °C.
Turning to `CC(=O)NC1(C)CCN(Cc2ccccc2)C1` (stereo not given), the melting point was in the range of 105 to 106 °C.
As for `COc1ccc(Oc2ncnc(-c3ccc(C(F)(F)F)cc3F)c2N)cc1`, the melting point was 129 to 130 °C.
As to `Cn1c(-c2ccc(O)cc2)cc2ccc(O)cc21`, the melting point fell in the range of 200 to 204 °C.
Turning to `CC1CN(Cc2ccccc2)CCC12CC(c1ccccc1)=NO2` (stereo not given), the melting point fell in the range of 101 to 108 °C.
The value for `Cc1ccc2c3c(c(Cl)nc2c1)C(=O)c1ccccc1-3` was 208 to 211 °C; that for `CC(C(=O)O)c1ccc(-c2ccccc2[N+](=O)[O-])cc1` (stereo not given) was 116 to 119 °C; that for `O=S(=O)(c1cc(Cl)ccc1Cl)n1c2cc(O)c(O)cc2c2ccc(O)c(O)c21` was greater than 300 °C.
In the case of `CSCC[C@H](NC(=O)Cc1cc(F)cc(F)c1)C(=O)N[C@@H]1C(=O)Nc2ccccc2S[C@@H]1c1ccccc1`, the melting point lay within 85 to 90 °C.
Molecule `COc1ccc(-c2c([N+](=O)[O-])cnc3ccc(Cl)cc23)cc1OC` yielded a melting point of 188 to 190 °C.
For `CCCCCCCCCCCCOc1ccc(C(=O)O)o1`, the melting point is 122 to 123 °C.
For the molecule `N#Cc1nn(-c2c(Cl)cc(C(F)(F)F)cc2Cl)c(N)c1-c1cccc(Cl)c1`, the melting point lay within 161 to 162 °C.
In turn, `COc1ccc(N2CCN(c3ccc(-n4cnn(C(C)C(F)(F)F)c4=O)cc3)CC2)cc1` (stereo not given) gave a melting point of 199 °C.
The molecule `COc1cc(C)nc(C(=O)O)n1` returned a melting point of 140 to 141 °C.
Regarding `CC1(C)OC[C@H](Cc2ccccc2)N1C(=O)Cn1cc(-c2ccc(-c3ccccc3)cc2)cn1`, the melting point fell in the range of 150 to 151 °C.
For `O=c1[nH]ncc2[nH]c(-c3ccc(OC(F)F)c(OC4CC4)c3)c(CC3CC3)c12`, the melting point is 204 to 206 °C.
On to `Nc1nccn2nc(SCc3ccccc3)nc12`, for which the melting point was 144 to 145 °C.
The figure for `O=C(O)c1cn(-c2ccccc2)c2cc(-c3ccncc3)ccc2c1=O` is greater than 325 °C.
Molecule `Cc1nc(NC(=O)c2cccc(Cl)c2)sc1C(=O)NCc1ccccc1` returned a melting point of 178 to 179 °C.
Regarding `O=C1NCCCc2cc(OCCCN3CCN(Cc4ccc5ccccc5n4)CC3)ccc21`, the melting point lay in the range of 161 to 162 °C.
Molecule `O=c1[nH]c(N2CCN(CCCCN3CCCCC3)CC2)cc2c(Cl)cccc12` had a melting point of 172 to 173 °C.
The figure for `CCOC(=O)C(C)(C)Sc1ccc2c(-c3ccccc3F)noc2c1Cl` is 83.4 °C; for `O=C(c1ccccc1CBr)c1ccc(Cl)cc1CBr` it is 152 to 153 °C; for `COc1cc2c(Nc3ccc(Cl)cc3F)ncnc2cc1OCCCOc1ccncc1` it is 138 to 140 °C.
Regarding `CN1CCC(N=[N+]=[N-])(c2ccccc2)C(O)C1` (stereo not given), the melting point was in the range of 170 to 171 °C.
The value for `COc1ccc2c(c1)CCC1CCNC(=O)C(CNC(C)C)=C21` (stereo not given) was 212 to 214 °C; that for `Cc1sc2ccc(Cl)cc2c1C1=NCCO1` was 100 to 102 °C; that for `O=C1COC[C@@H](c2cccc(F)c2)N1` was 119 to 121 °C.
The figure for `CC1(C)CNc2nc(-c3ccncc3)c(F)c(=O)n2C1` is 190 to 192 °C.
For `Cc1ccncc1Cn1nnnc1-c1cccc(Cl)c1Cl`, the melting point lay within 154 to 156 °C.
The value for `Cc1ccc(OCc2ccccc2)c(C(CCO)c2ccccc2)c1` (stereo not given) was 69 to 71 °C; that for `O=C(c1c(F)cccc1F)N1CNCN(c2ccc(Cl)cc2)C1=O` was 167 to 168 °C; that for `O=C(NCc1ccccc1Cl)c1ccc2cnccc2n1` was 120 to 121 °C.
`Cc1ncc([N+](=O)[O-])n1CCN1C(=O)CC(C)(C)CC1=O` came in with a melting point of 153 to 154 °C.
`CCCCCC1C=CC(c2ccc(C(F)(F)F)cc2)=CC1` (stereo not given) yielded a melting point of 54 °C.
The value for `O=Cc1cccc(NC(=O)c2ccccc2)c1` was 122 to 123 °C.
`CCOC(=N)c1ccc(-c2cc3ncn([C@H](C)[C@](O)(Cn4cncn4)c4ccc(F)cc4F)c(=O)c3s2)cc1` had a melting point of 158 to 161 °C.
Regarding `O=C(O)c1ccc(-c2cc(-c3ccc(C(F)(F)F)cc3)on2)cc1`, the melting point was greater than 300 °C.
The value for `CCC1=NNC(C)=C(C(=O)OCCOC(C)C)C1c1cccc([N+](=O)[O-])c1` (stereo not given) was 84 °C; that for `Cc1cccc(Nc2cc(Nc3cccc(OCC(O)CN(C)C)c3)ncn2)c1` (stereo not given) was 120 to 122 °C.
As to `CCn1nc(C(C)(C)C)c2c1C(=S)NCC(c1ccccc1)=N2`, the melting point amounted to 230 °C.
`CCCN=C(N)Nc1ccnc(CCCCc2c[nH]cn2)n1` had a melting point of 172 to 174 °C.
The value for `CC(O)C(CCCc1ccccc1)n1ncc2c(=O)[nH]c(Cc3ccc(Br)cc3)nc21` (stereo not given) was 117 °C; that for `CCn1c(N)c(-c2ncc[nH]2)c(=O)c2ccc(-c3ccc(CCCC(=O)NCc4ccncc4)cc3)nc21` was 240 °C; that for `Cc1cc(C)n(-c2ccc(C(N)=O)nn2)n1` was 256 to 257 °C.
On to `Cc1cc(-c2ccc(F)cc2)n(-c2ccc(S(C)(=O)=O)cc2)c1`, for which the melting point was 151 to 154 °C.
The value for `CC(=O)N1CCCC(C(=O)c2ccc(N3CCCCC3)cc2)C1` (stereo not given) was 116 to 120 °C; that for `CC(COc1ccc(C(N)=O)c(O)c1)NCC(O)COc1ccc(NS(C)(=O)=O)cc1` (stereo not given) was 147 to 150 °C; that for `O=C(O)C=CC=CC=CC1=Cc2cc(-c3ccccc3)ccc2OC1` was 260 °C.
As to `O=C1NCCN1C1CCN(CC(O)COc2cccnc2Cl)CC1` (stereo not given), the melting point is 163 to 166 °C.
Molecule `Cc1cn2c(N)c(Cl)cc(C(=O)NCC3CCN(CC(C)C)CC3)c2n1` came in with a melting point of 216 to 219 °C.
Take `CCCCc1oc2ccccc2c1C(=O)NCc1ccc2c(-c3ccc(C(C)(C)C)cc3)c(OCC#N)ccc2c1`: the melting point lay in the range of 162 to 164 °C.
`CCCN(CCC)C1Cc2c(-c3ncco3)ccc3c2C(C1)CN3C(=O)c1ccccc1` (single isomer, unassigned; (-)): the melting point was 103 to 104 °C.
The value for `CC(CO)(CO)NCc1cc2c3ccccc3ccc2c2ccccc12` was 200 to 202 °C; that for `CNC(=O)C1CN=CNC1` (stereo not given) was 150 to 151 °C; that for `CCN1C(=O)CCc2cc(S(=O)(=O)c3cccc([C@@]4(O)CCO[C@@H](C)C4)c3)ccc21` was 122 to 124 °C.
`CC(=O)Oc1cc2c(nc1C)C(=O)OC2=O` gave a melting point of 123 to 125 °C.
`CN1[C@@H](c2ccc(O)cc2)c2ccccc2S1(=O)=O`: the melting point fell in the range of 178 to 180 °C.
The value for `O=C(C(=NO)c1ccc(F)cc1)c1ccnc(F)c1` was 166 °C; that for `COC(=O)c1ccc(Sc2cccc(OCCCCl)c2)cc1` was 47 to 49 °C.
Molecule `COC(=O)C(C(=O)OC)C(Cc1cc(Cl)ccc1[N+](=O)[O-])c1ccc(OC)cc1` (stereo not given) came in with a melting point of 117 to 120 °C.
With `COC(=O)CN(C=O)C1c2ccccc2CCC1(C)C` (stereo not given), the melting point lay in the range of 74 to 75 °C.
In turn, `CCOC(=O)c1c(CC)nn2c(-c3cccc(C(F)(F)F)c3)ccnc12` displayed a melting point of 142 to 143 °C.
Take `COc1ccc(-c2cc3nc(N(C)C)c4ccccc4c3nn2)cc1`: the melting point was 160 to 162 °C.
For the molecule `CCOC(=O)NCC(O)c1ccc(OC)c(OC)c1` (stereo not given), the melting point fell in the range of 90 to 92 °C.
In turn, `Cc1csc2ncc(C(O)CCc3ccccc3)n12` (stereo not given) displayed a melting point of 144 to 145 °C.
Molecule `CCOc1ccc(O)c2c1C(=O)N(CSc1nnnn1-c1ccccc1)S2(=O)=O` showed a melting point of 178 to 180 °C.
As for `CCC(=O)c1c(O)cccc1O`, the melting point was 135 to 136 °C.
Consider `CN1CCN(C(=N)Nc2ccccc2-c2cccc(F)c2)CC1`, for which the melting point lay in the range of 117 to 118 °C.
For the molecule `O=C(O)c1ncn2c1CSC2`, the melting point lay in the range of 184 to 185 °C.
Molecule `CCS(=O)(=O)N(C)C1c2cc(F)c(Cl)cc2OC(C)(C)C1O` (stereo not given) had a melting point of 188 to 190 °C.
As to `Cc1ccn2ncc(C(=O)Nc3cc(Cl)ccc3OC3CCC(O)CC3)c2n1` (stereo not given), the melting point was 179 to 182 °C.
The figure for `CC1(C)Oc2cc3nonc3cc2C(N2CCC(=O)CC2=O)C1O` (stereo not given) is 220 to 223 °C; for `Cc1cc(C)n2ncc(F)c2n1` it is 129 to 130 °C; for `CN1C(=O)CC(c2ccccc2)C1C(O)Cc1cccc(Cl)c1` (stereo not given) it is 50 to 52 °C.
Molecule `CSC1=Nc2ccccc2C2=NCC(CC3CNCCC34CCCCC4)N12` (stereo not given) gave a melting point of 114 to 115 °C.
Consider `N#CCCNC(=O)c1cccc(-c2ccc3ccn(Cc4ccc(Cl)cc4Cl)c3c2)c1`, for which the melting point was in the range of 153 to 154 °C.
As to `CCOC(=O)c1c(CCl)nc2cc3c(cc2c1-c1ccc(OC)c(OC)c1)OCCO3`, the melting point is 197 to 198 °C.
Molecule `COCCOCc1c(C=O)sc2c(=O)c(C(=O)NCc3ccc(Cl)cc3)cn(C)c12` gave a melting point of 152 to 153 °C.
`c1ccc(COc2ccc3c(c2)CCc2c-3[nH]c3ccc(OCc4ccccc4)cc23)cc1`: the melting point is 177 to 180 °C.
The value for `O=C(O)COc1ccc(SSc2ccc(OCC(=O)O)c(Br)c2)cc1Br` was 146 to 150 °C; that for `CCCCc1cc(C#N)sc1-c1ccc2c(c1)C(C)(C)OC(=S)N2` was 174 to 175 °C; that for `O=C1CCC(N2Cc3c(OCc4ccc(CN5CCOc6ccccc65)cc4)cccc3C2=O)C(=O)N1` (stereo not given) was 145 to 147 °C.
For the molecule `COc1ccc(C(=O)Nc2ccccc2)cc1NC(=S)Nc1cccc(C(=O)O)c1`, the melting point was in the range of 196 to 197 °C.
On to `COCCNC(=O)C(C)Oc1ccc(Oc2ccc(C(F)(F)F)cc2)cc1` (stereo not given), for which the melting point was in the range of 73 to 75 °C.
As to `Cc1ccc(Oc2nc3ccccc3o2)c(=S)n1C`, the melting point fell in the range of 245 to 247 °C.
Turning to `CC(C)NC(=O)c1n[nH]cc1NC(=O)c1ccccn1`, the melting point lay in the range of 254 to 255 °C.
The figure for `CC(CC#N)C(=O)c1ccc(C(=O)C(C)CC#N)cc1` (stereo not given) is 142 to 145 °C; for `CCn1cc(C(=O)O)c(=O)c2cnc(N3CCN(Cc4ccc([N+](=O)[O-])cc4)CC3)nc21` it is 259 to 261 °C; for `FC(F)(F)c1ccc(-c2cc3[nH]ccn3n2)cc1` it is 134 to 135 °C.

The record behind these values is a melting point compilation (Tetko et al.; mined from patent text by program, amines drawn as free bases though some values may be those of a salt).
